The values below come from publication PMC5430874 (Scientific Reports, 2017).

Where a chain is given by its changes, count along the chain named. Like-named read-outs stand apart in the source and are kept apart here.

Format in all cases: cell-based
The target of test [1] is T1, GPR139 F109A^3×33 (Homo sapiens, UniProt Q6DWJ6, F109A).
T1 construct: mGluR5 signal peptide (N); expressed in transfected cells; host or cells: HEK293
T1 sequence (Q6DWJ6 2-353 F109A limits assumed): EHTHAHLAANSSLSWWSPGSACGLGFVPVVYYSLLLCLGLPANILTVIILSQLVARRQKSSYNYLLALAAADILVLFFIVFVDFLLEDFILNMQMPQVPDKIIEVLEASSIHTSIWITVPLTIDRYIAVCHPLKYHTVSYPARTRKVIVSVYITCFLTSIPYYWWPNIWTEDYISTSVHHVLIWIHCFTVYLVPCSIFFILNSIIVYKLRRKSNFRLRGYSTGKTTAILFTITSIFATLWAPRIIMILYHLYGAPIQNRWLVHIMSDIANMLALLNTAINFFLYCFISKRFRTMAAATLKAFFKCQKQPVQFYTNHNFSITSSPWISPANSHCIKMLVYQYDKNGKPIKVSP
Kind of test: Fluo-4 Ca2+-assay, GPR139 mutant F109A. Also noted: key to Emax ± SEM: NE: no effect (loss of activity). The settings on record: for EC50: F109A mutant; for Change of in vitro potency: F109A mutant versus WT, fold decreased. The text has this:
(§1) To study the influence of specific amino acids in the predicted binding pocket on receptor function, the desired mutations were introduced into an N-terminally c-myc-tagged wild type human GPR139 (NM_001002911.3) in the pEGFP-N1 vector (BD Biosciences)[32], [33]. As previously described, these plasmids carry the signal peptide of mGluR5 to promote cell surface expression followed by a c-myc epitope to enable detection of total and surface expression by ELISA, followed by an engineered MluI and NotI site for easy insertion of the receptor of interest. Furthermore, the start-codon in the GPR139 sequence was deleted to ensure c-myc-tagging. Mutagenesis was designed in Serial Cloner 2.6 (© Franck Perez [SerialBasics]) and carried out by GenScript (USA). All mutated residues are illustrated in Supplementary Fig. 1b. An untagged GPR139(WT) in pEGFP-N1 was also generated to ensure that the c-myc-tag had no influence on GPR139(WT) function.
(§2) All GPR139 mutants were transfected into HEK293 cells. The HEK293 cells were grown in Dulbecco’s modified Eagle’s medium (DMEM) (Gibco, 41965) supplemented with 10% dialyzed fetal bovine serum (Gibco, 26400, United States origin), 100 units/mL penicillin and 100 μg/mL streptomycin (Gibco, 15140). HEK293 cells were reverse transfected using Lipofectamine2000 (Invitrogen). More specifically two mixtures were made: 1) 10 ng DNA/well + 25 μL Opti-MEM/well and 2) […] Lipofectamine2000/well + 25 μL Opti-MEM/well. The two mixtures were mixed and 50 μL/well was added directly in black 96-well plates with flat clear bottoms for the Fluo-4 Ca^2+-assay (Corning, Falcon, 353219) or in white Opaque 96-well Microplate (PerkinElmer Life, 6005680) for ELISA. 100 μL containing 20,000 cells were added to each well and incubated 48 hours before assays. All plates were coated with poly-D-lysine.
(§3) Compound 1a (1a) was kindly provided by H. Lundbeck A/S, Denmark. […] Both compounds were dissolved to 20 mM in DMSO (Sigma, D2650) and subsequently diluted in a HEPES buffer (HBSS (Gibco, 14025) supplemented with 20 mM HEPES + 1 mM MgCl2 + 1 mM CaCl2, pH = 7.4) to a final concentration of 0.5% DMSO in the Fluo-4 Ca^2+-assay. The DMSO level was kept constant for all concentrations of both compounds. DMSO was confirmed not to have any activity by itself at this concentration. L-Trp (T0254) and L -Phe (P2126) were obtained from Sigma-Aldrich and dissolved in buffer.
(§4) The Ca^2+ measurements were preformed using the Fluo-4 NW Calcium Assay Kit (Invitrogen, Molecular Probes, F36206) as previously described. Briefly, the Fluo-4 dye loading solution was prepared according to the manufacturer’s instructions by dissolving it in HEPES-buffer supplemented with 2.5 mM probenecid. 50 μL dye loading solution was added to each well. Cells were incubated with the Fluo-4 dye for 60 min at 37 °C, then washed with 100 μL HEPES-buffer. 100 μL HEPES-buffer supplemented with 2.5 mM probenecid was then added to each well and incubated in 10 minutes at 37 °C before measurement. […] Intracellular calcium changes were recorded as indicated on either a NOVOstar (BMG Labtech) at 37 °C with an excitation filter of 485 nm and an emission filters 520 nm or a FlexStation 3 Benchtop Multi-Mode Microplate Reader (Molecular Devices) at 37 °C with an excitation wavelength of 485 nm and emission of 525 nm.
(§5) All pharmacological data have been analyzed by using Prism 6.0 (GraphPad Software Inc., San Diego). Fitting of concentration response curves was performed by non-linear regression log(agonist) vs. response (four parameters). Pooled data are shown with standard error of the mean (S.E.M.) and data showing one representative are shown with standard deviation (S.D.). Changes in potency (pEC50) and span of myc-GPR139(WT) in comparison to untagged GPR139(WT) was statistically analyzed with a paired t-test and significance was accepted at p < 0.05. The ELISA data were normalized to surface expression of myc-GPR139(WT) (100%). […]

For test [2], the target named is T2, GPR139 H187A^5×43 (Homo sapiens, UniProt Q6DWJ6, H187A).
T2 construct: mGluR5 signal peptide (N); expressed in transfected cells; host or cells: HEK293
T2 sequence (Q6DWJ6 2-353 H187A limits assumed): T1 sequence (Q6DWJ6 2-353 F109A limits assumed) with A108F, H186A
Kind of test: Fluo-4 Ca2+-assay, GPR139 mutant H187A. The settings on record: for EC50: H187A mutant (surface expression 36% of WT).
From the text: as §1, §2
Compound 1a (1a) was kindly provided by H. Lundbeck A/S, Denmark. […]
The Ca^2+ measurements were preformed using the Fluo-4 NW Calcium Assay Kit (Invitrogen, Molecular Probes, F36206) as previously described. […] Intracellular calcium changes were recorded as indicated on either a NOVOstar (BMG Labtech) at 37 °C with an excitation filter of 485 nm and an emission filters 520 nm or a FlexStation 3 Benchtop Multi-Mode Microplate Reader (Molecular Devices) at 37 °C with an excitation wavelength of 485 nm and emission of 525 nm.
All pharmacological data have been analyzed by using Prism 6.0 (GraphPad Software Inc., San Diego). […] Changes in potency (pEC50) and span of myc-GPR139(WT) in comparison to untagged GPR139(WT) was statistically analyzed with a paired t-test and significance was accepted at p < 0.05. […]

In test [3] the target is T3, myc-GPR139(WT) (Homo sapiens, UniProt Q6DWJ6).
T3 construct: mGluR5 signal peptide (N); expressed in transfected cells; host or cells: HEK293
T3 sequence (Q6DWJ6 2-353 limits assumed): T1 sequence (Q6DWJ6 2-353 F109A limits assumed) with A108F
Kind of test: Fluo-4 Ca2+-assay, myc-tagged wild-type GPR139 in HEK293. The settings on record: for Emax: HEK293; for EC50: Fluo-4 Ca2+-assay.
From the text: as §1, §2, §3, §4, §5

The mark [4] stands for this setting: WT, HEK293, three independent experiments, read-out: pEC50 ± SEM (converted).

Broadly, the Emax is the size of the effect at its maximum, as opposed to the concentration needed. For `C[C@@H](NC(=O)CNC(=O)c1cccc(Cl)c1)c1ccccc1` (racemic) [Compound 7c], in test [1], the maximum response (Emax) at 100 µM worked out at 60 ± 3%, the EC50 is greater than 100 µM and the “Change of in vitro potency” value is reported as greater than 2000 fold decreased. In addition, in test [2], the maximal response (Emax) turned out to be 60 ± 9% and the EC50 was 6.61 µM. Further, the maximal response (Emax) in test [3] was 100%. Further, the EC50 in test [3] (setting [4]) is 0.0479 µM.
For the compound `COc1cc(OC)cc(C(=O)NNC(=O)Nc2cccc3ccccc23)c1` [Compound 1a], the EC50 is greater than 7.94 µM in test [1]; greater than 7.94 µM in test [2]; 0.234 µM in test [3] (setting [4]); 0.67 µM in test [3] (myc-tagged wild-type (WT) receptor, read-out: EC50). Further, in test [1], the “Change of in vitro potency” value is on record as “Loss of function”. In test [1] (F109A, at 8 μM, normalized to buffer (0%) and 8 μM 1a (100%) on WT), the “Emax ± SEM” value is recorded as “NE*”. Moreover, in test [2] (H187A, at 8 μM, normalized to buffer (0%) and 8 μM 1a (100%) on WT), the Emax at 8 µM worked out at 35 ± 5%.
With `N[C@@H](Cc1ccccc1)C(=O)O` [L-Phe, phenylalanine], the EC50 in test [1] is greater than 31600 µM; in test [3] (setting [4]) it was 372 µM. Also, in test [1] (F109A, at 30 mM, normalized to buffer (0%) and 30 mM Phe (100%) on WT), the maximum response (Emax) at 30000 µM turned out to be 60 ± 6%. In addition, in test [3] (WT, normalized to buffer (0%) and 30 mM Phe (100%)), the maximal effect (Emax) worked out at 100%.
In the case of `N[C@@H](Cc1c[nH]c2ccccc12)C(=O)O` [L-Trp, tryptophan], the EC50 in test [1] is greater than 10000 µM; in test [3] (setting [4]), 200 µM. The Emax at 10000 µM in test [1] (F109A, at 10 mM, normalized to buffer (0%) and 10 mM Trp (100%) on WT) came out at 60 ± 10%. The compound further came in with an Emax in test [3] (WT, normalized to buffer (0%) and 10 mM Trp (100%)) of 100%.
